Test results: ChEMBL document CHEMBL1201862, “PubChem BioAssay data set” (2004)
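Values below derive from 48-hour exposures of cells grown in 96-well plates, with endpoints linearly interpolated between the two concentrations bracketing the appropriate inhibition level. GI50 marks 50% less growth.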 Active and inactive are the calls of the source. No stated cut-off is given here; in the data, active = GI50 up to about 1.1 µM and inactive = higher.

Experiments:
Assay in all cases: NCI-60 cell line screen, 48 h
UACC-257 = tested on: UACC-257
RXF 393 = tested on: RXF 393
SNB-19 = tested on: SNB-19
NCI-H460 = tested on: NCI-H460
Hs-578T = tested on: Hs-578T
OVCAR-8 = tested on: OVCAR-8
HT-29 = tested on: HT-29
SNB-75 = tested on: SNB-75
NCI-H522 = tested on: NCI-H522
786-0 = tested on: 786-0
SK-OV-3 = tested on: SK-OV-3
KM12 = tested on: KM12
UO-31 = tested on: UO-31
SN12C = tested on: SN12C
HOP-62 = tested on: HOP-62
SW-620 = tested on: SW-620
HOP-92 = tested on: HOP-92
HL-60 = tested on: HL-60
MOLT-4 = tested on: MOLT-4
SR = tested on: SR

Measured: GI50

Cc1ccc(/C(=C/C=C(C#N)C#N)Sc2cc(Cl)ccc2Cl)cc1
inactive: UACC-257 2.78 µM | RXF 393 7.29 µM | SNB-19 5.97 µM | NCI-H460 4.31 µM | Hs-578T 2.42 µM | OVCAR-8 2.37 µM | HT-29 3.81 µM | SNB-75 17 µM | NCI-H522 3.55 µM | 786-0 1.92 µM | SK-OV-3 8 µM | KM12 4.78 µM | UO-31 8.81 µM | SN12C 3.22 µM | HOP-62 3.71 µM | SW-620 1.66 µM

NC(Cc1cc(I)c(Oc2ccc(O)c(I)c2)c(I)c1)C(=O)O (configuration not stated) [RATHYRONINE]
inactive: UACC-257 > 100 µM | RXF 393 > 100 µM | SNB-19 80.9 µM | Hs-578T 37.9 µM | OVCAR-8 > 100 µM | HT-29 > 100 µM | SNB-75 54.3 µM | NCI-H522 36.1 µM | 786-0 > 100 µM | SK-OV-3 > 100 µM | HOP-92 82.4 µM | KM12 > 100 µM | UO-31 > 100 µM | SN12C > 100 µM | HOP-62 > 100 µM | SW-620 > 100 µM

CC1(C)OC1COc1c2occc2cc2ccc(=O)oc12 (configuration not stated)
inactive: UACC-257 > 100 µM | RXF 393 > 100 µM | SNB-19 > 100 µM | NCI-H460 40.6 µM | Hs-578T > 100 µM | OVCAR-8 60.5 µM | HT-29 > 100 µM | SNB-75 > 100 µM | NCI-H522 > 100 µM | 786-0 > 100 µM | HOP-92 > 100 µM | KM12 > 100 µM | UO-31 72.4 µM | SN12C > 100 µM | HL-60 70.5 µM | HOP-62 > 100 µM | SW-620 > 100 µM | MOLT-4 79.3 µM

CCOC(=O)c1c(N=C(S)Nc2ccc(Cl)cc2)sc2c1CCN(C)C2
inactive: UACC-257 > 100 µM | RXF 393 32.7 µM | SNB-19 > 100 µM | NCI-H460 94 µM | Hs-578T > 100 µM | OVCAR-8 > 100 µM | HT-29 > 100 µM | 786-0 > 100 µM | KM12 > 100 µM | UO-31 83 µM | SN12C > 100 µM | HL-60 32.9 µM | HOP-62 > 100 µM | MOLT-4 41.8 µM

Nc1ccc(Oc2ccc(C34CC5C6CC7(c8ccc(Oc9ccc(N)cc9)cc8)CC5C(C3)C(C7)C6C4)cc2)cc1
inactive: UACC-257 > 100 µM | RXF 393 > 100 µM | SNB-19 > 100 µM | NCI-H460 > 100 µM | Hs-578T > 100 µM | OVCAR-8 > 100 µM | HT-29 > 100 µM | NCI-H522 > 100 µM | 786-0 > 100 µM | HOP-92 > 100 µM | KM12 > 100 µM | UO-31 > 100 µM | SN12C > 100 µM | HL-60 > 100 µM | HOP-62 > 100 µM | SW-620 > 100 µM | MOLT-4 > 100 µM

C=CCCON(C(=O)OC(C)(C)C)C(C)(C)C
inactive: UACC-257 > 100 µM | RXF 393 > 100 µM | SNB-19 > 100 µM | NCI-H460 > 100 µM | Hs-578T > 100 µM | OVCAR-8 > 100 µM | HT-29 > 100 µM | SNB-75 > 100 µM | NCI-H522 > 100 µM | 786-0 > 100 µM | SK-OV-3 > 100 µM | HOP-92 > 100 µM | KM12 > 100 µM | UO-31 > 100 µM | SN12C > 100 µM | HL-60 > 100 µM | HOP-62 > 100 µM | SW-620 > 100 µM | MOLT-4 > 100 µM

CN/C(=N\N=C1/C(=O)Nc2ccccc21)SCC(=O)c1ccc(Br)cc1
inactive: UACC-257 7.66 µM | RXF 393 5.04 µM | SNB-19 32.4 µM | NCI-H460 10.2 µM | Hs-578T 10.9 µM | OVCAR-8 8.53 µM | HT-29 8.59 µM | SNB-75 8.47 µM | NCI-H522 15.5 µM | 786-0 5.61 µM | SK-OV-3 9.04 µM | HOP-92 20.7 µM | KM12 7.53 µM | SN12C 12.5 µM | HL-60 3.48 µM | HOP-62 5.19 µM | SW-620 2.42 µM | MOLT-4 2.86 µM
active: UO-31 1.04 µM

COC(=O)c1c(O)ccc2c1c1c(n2-c2ccc(OC)cc2)C(=O)c2ccccc2C1=O
inactive: UACC-257 64.9 µM | RXF 393 13 µM | SNB-19 20.6 µM | NCI-H460 5.04 µM | Hs-578T 16.9 µM | OVCAR-8 12.6 µM | HT-29 4.14 µM | SNB-75 23.9 µM | NCI-H522 15.1 µM | 786-0 15.7 µM | SK-OV-3 19.3 µM | HOP-92 14.8 µM | KM12 14.1 µM | UO-31 11.9 µM | SN12C 28.9 µM | HL-60 > 100 µM | HOP-62 20.2 µM | SW-620 42.3 µM | MOLT-4 8.28 µM

CC[n+]1[b-](C(C)(C)C)n(/N=C(\C)C(C)(C)C)[b-](C(C)(C)C)[n+]1CC
inactive: UACC-257 > 100 µM | RXF 393 > 100 µM | SNB-19 > 100 µM | NCI-H460 > 100 µM | Hs-578T > 100 µM | OVCAR-8 > 100 µM | HT-29 > 100 µM | SNB-75 > 100 µM | NCI-H522 > 100 µM | 786-0 > 100 µM | KM12 > 100 µM | UO-31 > 100 µM | SN12C > 100 µM | SR 23.6 µM | HOP-62 > 100 µM | SW-620 > 100 µM | MOLT-4 > 100 µM

COC(=O)NC1(NC(=O)OC)NC(=O)c2cc(OC)c(OC)c(OC)c2N1
inactive: UACC-257 > 100 µM | SNB-19 44.9 µM | NCI-H460 17.2 µM | Hs-578T 13.3 µM | OVCAR-8 64.4 µM | HT-29 36.9 µM | SNB-75 13.7 µM | NCI-H522 6.98 µM | 786-0 39 µM | SK-OV-3 2.62 µM | KM12 7.19 µM | UO-31 46.2 µM | SN12C 41.6 µM | HL-60 8.15 µM | SR 17.3 µM | HOP-62 21.1 µM | SW-620 18.2 µM | MOLT-4 63.2 µM

COc1ccc2nc3ccccc3c(NCCCCCCN(CCCl)CCCl)c2c1
active: RXF 393 0.187 µM | SNB-19 0.328 µM | NCI-H460 0.0346 µM | OVCAR-8 0.0627 µM | HT-29 0.0248 µM | SNB-75 0.108 µM | NCI-H522 0.0338 µM | 786-0 0.0161 µM | SK-OV-3 0.226 µM | HOP-92 0.124 µM | KM12 0.151 µM | UO-31 0.123 µM | SN12C 0.0348 µM | HL-60 0.0122 µM | SR 0.0115 µM | HOP-62 0.212 µM | SW-620 0.0199 µM | MOLT-4 0.0124 µM
inactive: UACC-257 1.6 µM
